These results are taken from patent US5858371A, “Pharmaceutical composition for the control and treatment of anorectal and colonic diseases” (Panacea Biotech Limited, priority 1997, dated 1999).

SMILES strings stand for the structures.

The test system of experiment [1] is granulocyte infiltration (MPO activity). Briefly: Granulocyte/leucocyte infiltration (MPO activity), croton oil ear. The format is in vivo, mice. Conditions: for leukocyte infiltration: measured as myeloperoxidase activity; for Effect on granulocyte infiltration (MPO activity): apigenin glycoside 0.37, luteolin glycoside 0.27, indomethacin 1.26, hydrocortisone 0.41 μMol, one unit = 1 nMol/min. of tetraguaiacol at 25° C. How it is done:
Effect on granulocyte infiltration (MPO activity).
One unit = 1 nMol/min. of tetraguaiacol formed at 25° C. p < 0.05
The inflammation appears to naturally suppress after 30 hours.

Experiment [2] relates to croton-oil induced ear oedema. Briefly: Croton oil ear test (topical; oedema). In kind it is in vivo, mice. Conditions: for Activity Ratio on Molar basis: Indomethacin = 1; for Effect on Oedema Development: apigenin glycoside 0.037, luteolin glycoside 0.27, indomethacin 1.26, hydrocortisone 0.41 μMol, means ± s.e. From the text:
The test used was described in published literature, where apigenin 7-glucoside was used as a reference sample.
Indomethacin and hydrocortisone were used as the reference drugs.

Experiment [3] relates to Carrageenan-induced Mice Paw Oedema. As to the kind of experiment: Carrageenan-induced paw oedema, topical application. The format is in vivo. How it is done:
Carrageenan-induced Pedal Oedema Test:
Modification of Carrageenan-induced Mice Paw Oedema following Topical
Application of the Standardized Extract and Indomethacin.
The duration of action of topical preparation was determined by studying the effects of different concentrations of the drug on oedema over a period of 8 hr. As evident from the Table 3, the peak inhibition was observed after 3-4 hours of carrageenan injection beginning at 2 hr for the extract at lower concentrations (0.5-2.0%) and 1 hr. at 4% concentration.
On the technique in general: In the carrageenan paw model, swelling and tenderness develop within hours.

Experiment [4] concerns Carrageenan-induced Pedal Oedema. Briefly: Carrageenan-induced pedal oedema in rats, oral extract / i.p. indomethacin. In kind it is in vivo. Conditions: for Oedema + SEM (%): N=6. From the text: Carrageenan-induced oedema is a biphasic event, the early hypermia being due to the release of histamine and serotonin and the delayed oedema due to the release of bradykinin and prostaglandins.
Modification of Carrageenan-induced Pedal Oedema in Rats following oral
Administration of the extract and Intraperitoneal treatment with […]

In a further experiment the test system is neutrophil functions. Conditions: cited from earlier work.
A further experiment has as its system cotton pellet granuloma. Particulars: in vivo; cited from earlier work.
For experiment [5], the system named is mast cell histamine secretion. Particulars: cited from earlier work.

With `O=c1cc(-c2ccc(O)cc2)oc2cc(O)cc(O)c12` [Apigenin, apigenin], in experiment [1], the “leukocyte infiltration” value is reported as “decrease leukocyte infiltration”.

On to `O=c1cc(-c2ccc(O)cc2)oc2cc(O[C@@H]3O[C@H](CO)[C@@H](O)[C@H](O)[C@H]3O)cc(O)c12` [Apigenin-7-glucoside], for which the “Activity Ratio on Molar basis” value in experiment [2] amounted to 0.32.

Turning to `C[C@]12CCC(=O)C=C1CC[C@@H]1[C@@H]2[C@@H](O)C[C@@]2(C)[C@H]1CC[C@]2(O)C(=O)CO` [Hydrocortisone], the “Effect on Oedema Development” value was 0.5 ± 0.2 mg in experiment [2] (6 hours after treatment), 0.7 ± 0.1 mg in experiment [2] (18 hours after treatment) and 0.7 ± 0.1 mg in experiment [2] (30 hours after treatment). Further, in experiment [2] (18 hours after treatment), the “duration of antiinflammatory activity” value is reported as “maintain their effect to a certain extent”. Besides, in experiment [2], the “Activity Ratio on Molar basis” value was found to be 14.00. In addition, the “Effect on granulocyte infiltration (MPO activity)” value in experiment [1] (6 hours after treatment) is listed as 0.0 ± 0.2 unit; in experiment [1] (18 hours after treatment), 6.9 ± 2.1 unit; in experiment [1] (30 hours after treatment), 8.2 ± 2.4 unit.

What is called inhibition is the percentage by which the read-out fell short of the control. A low value points to a response near the control. As to `COc1ccc2c(c1)c(CC(=O)O)c(C)n2C(=O)c1ccc(Cl)cc1` [Indomethacin], the “Effect on Oedema Development” value came to 0.0 ± 0.1 mg in experiment [2] (6 hours after treatment), 3.1 ± 0.4 mg in experiment [2] (18 hours after treatment) and 0.5 ± 0.1 mg in experiment [2] (30 hours after treatment). Besides, the “duration of antiinflammatory activity” value in experiment [2] (18 hours after treatment) is on record as “lose their antiinflammatory activity 18 hours after treatment”. The “inhibition of carrageenan-induced paw oedema” value in experiment [3] (Indomethacin line printed at dose 1.00, +60 m, N=6) worked out at 30.3%; in experiment [3] (Indomethacin line printed at dose 1.00, +120 m, N=6), 28.0%; in experiment [3] (Indomethacin line printed at dose 1.00, +180 m, N=6), 46.8%; in experiment [3] (Indomethacin line printed at dose 1.00, +240 m, N=6), 21.2%; in experiment [3] (Indomethacin line printed at dose 1.00, +360 m, N=6), 11.5%; in experiment [3] (Indomethacin line printed at dose 1.00, +480 m, N=6), 13.9%. The “inhibition of carrageenan-induced paw oedema” value in experiment [3] (Indomethacin line printed at dose 2.00, +60 m, N=6) was found to be 18.2%; in experiment [3] (Indomethacin line printed at dose 2.00, +120 m, N=6), 24.0%; in experiment [3] (Indomethacin line printed at dose 2.00, +180 m, N=6), 29.0%; in experiment [3] (Indomethacin line printed at dose 2.00, +240 m, N=6), 21.2%; in experiment [3] (Indomethacin line printed at dose 2.00, +360 m, N=6), 9.6%; in experiment [3] (Indomethacin line printed at dose 2.00, +480 m, N=6) it was 4.6%. For the same compound, the “inhibition of carrageenan-induced paw oedema” value was 24.2% in experiment [3] (last line, no dose given, +60 m); 26.0% in experiment [3] (last line, no dose given, +120 m); 41.9% in experiment [3] (last line, no dose given, +180 m); 36.4% in experiment [3] (last line, no dose given, +240 m); 11.5% in experiment [3] (last line, no dose given, +360 m); 10.6% in experiment [3] (last line, no dose given, +480 m). The inhibition in experiment [3] (indomethacin 2 percent concentration) is given as 41.9%. In addition, the “Oedema + SEM (%)” value in experiment [4] (indomethacin 0.5 mg/Kg i.p., +30 min) stood at 13.6 ± 4.0%; in experiment [4] (indomethacin 0.5 mg/Kg i.p., +60 min), 18.9 ± 4.0%; in experiment [4] (indomethacin 0.5 mg/Kg i.p., +120 min), 28.8 ± 4.2%; in experiment [4] (indomethacin 1.0 mg/Kg i.p., +30 min), 9.3 ± 2.3%; in experiment [4] (indomethacin 1.0 mg/Kg i.p., +60 min), 12.3 ± 2.2%; in experiment [4] (indomethacin 1.0 mg/Kg i.p., +120 min) it was 16.4 ± 1.6%. In addition, the “Oedema + SEM (%)” value is on record as 8.2 ± 1.5% in experiment [4] (indomethacin 2.0 mg/Kg i.p., +30 min) and 12.8 ± 1.8% in experiment [4] (indomethacin 2.0 mg/Kg i.p., +60 min). In addition, the inhibition of oedema in experiment [4] (indomethacin 1 mg/kg i.p.) is on record as 74%. For the same compound, the entries for the “Effect on granulocyte infiltration (MPO activity)” value in experiment [1] (6 hours after treatment), in experiment [1] (18 hours after treatment) and in experiment [1] (30 hours after treatment) were 0.0 ± 0.1 unit, 10.0 ± 1.6 unit and 6.8 ± 3.4 unit, respectively.

For `O=c1c(O)c(-c2ccc(O)c(O)c2)oc2cc(O)cc(O)c12` [Quercetin, quercetin], the “Activity Ratio on Molar basis” value in experiment [2] stood at 0.65. Moreover, the “neutrophil functions: release of lysosomal enzymes, oxygen consumption, generation of free radicals and chemotaxis” value with neutrophil functions was “inhibits mast cell histamine secretion (Benett, J. P., Gomperts, B. D. and Wollenweber, E., Arzneim. Forsch., 31, 433, 1981), neutrophil functions such as release of lysosomal enzymes, oxygen consumption, generation of free radicals and chemotaxis”. Further, the “exudative and proliferative phases of cotton pellet granuloma” value with cotton pellet granuloma is “control significantly the exudative and the proliferative phases of the cotton pellet granuloma”. In addition, the “mast cell histamine secretion” value in experiment [5] is listed as “inhibits mast cell histamine secretion”.

Take `C[C@@H]1O[C@@H](OC[C@H]2O[C@@H](Oc3c(-c4ccc(O)c(O)c4)oc4cc(O)cc(O)c4c3=O)[C@H](O)[C@@H](O)[C@@H]2O)[C@H](O)[C@H](O)[C@H]1O` [Rutin]: the “Activity Ratio on Molar basis” value in experiment [2] amounted to 0.28.

With `O=c1cc(-c2ccc(O)c(O)c2)oc2cc(O)cc(O)c12` [luteolin], in experiment [1], the “leukocyte infiltration” value is “decrease leukocyte infiltration and luteolin maintained its effect even after 18 hours of treatment”.
